Source: ChEMBL document CHEMBL1201862, “PubChem BioAssay data set” (2004)
Active and inactive are the calls of the source.

Legend:
[1] = target: Heat shock protein HSP 90-alpha (Homo sapiens, UniProt P07900); assay: Luminescence-based dose response biochemical high throughput screening assay for inhibitors of the Heat Shock Protein 90 (HSP90). [Related pubchem assays: 1831 (Summary AID.), 1846 (Confirmation screen.), 1789 (Primary screen.)]
[2] = target: T1, Luciferin 4-monooxygenase (Photuris pensylvanica, UniProt Q27757); assay: inhibition of Cell Titer Glo luciferase signal – biochemical, luminescence, cherry-picks, counter-screen for HSF-1 reporter inhibitor project, dose response (AID 588847)
T1 sequence (Q27757 whole entry): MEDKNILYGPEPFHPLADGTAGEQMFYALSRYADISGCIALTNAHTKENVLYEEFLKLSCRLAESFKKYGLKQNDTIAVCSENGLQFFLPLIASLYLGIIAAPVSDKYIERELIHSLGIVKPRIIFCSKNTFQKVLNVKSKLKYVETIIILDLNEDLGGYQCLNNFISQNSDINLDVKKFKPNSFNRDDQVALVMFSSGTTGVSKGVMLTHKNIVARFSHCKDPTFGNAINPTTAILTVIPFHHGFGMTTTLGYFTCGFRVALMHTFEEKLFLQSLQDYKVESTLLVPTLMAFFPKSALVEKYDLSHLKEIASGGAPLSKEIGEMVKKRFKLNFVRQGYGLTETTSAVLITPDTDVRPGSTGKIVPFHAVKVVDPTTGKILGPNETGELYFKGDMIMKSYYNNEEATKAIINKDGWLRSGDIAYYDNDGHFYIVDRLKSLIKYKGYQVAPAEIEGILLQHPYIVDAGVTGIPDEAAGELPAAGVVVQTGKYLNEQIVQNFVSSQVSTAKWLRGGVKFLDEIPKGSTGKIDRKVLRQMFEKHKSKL

[3] = viability loss in THP-1 monocytes – THP-1 cells, cytotoxicity control for Vif-APOBEC3G degradation inhibitor project, dose response (AID 1117359); assay type: functional; conditions: THP-1
HEK293 [4] = assay: cells; conditions: Homo sapiens
HEK293 [5] = assay: cells; conditions: Homo sapiens; remark: listed apart in the source
NADPH oxidase 1 [6] = target: T2, NADPH oxidase 1 (Homo sapiens, UniProt Q9Y5S8); assay type: functional, cell-based
[7] = viability loss in Vero cells – cytotoxicity control for Vif-APOBEC3G degradation inhibitor project, dose response (AID 1117358); assay type: functional; conditions: Vero
[8] = target: Mitogen-activated protein kinase 10 (Homo sapiens, UniProt P53779); assay: Dose response biochemical screening assay for inhibitors of c-Jun N-Terminal Kinase 3 (JNK3). [Related pubchem assays: 746 ]
[9] = IC50 of Artemis nuclease activity blockers – biochemical, fluorescence intensity, dose response (AID 720701); assay type: functional;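 further: Artemis endonuclease enzyme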
[10] = target: Aryl hydrocarbon receptor (Homo sapiens, UniProt P35869); assay: Luminescence-based cell-based high throughput dose response assay for activators of the Aryl Hydrocarbon Receptor (AHR). [Related pubchem assays: 2796 (Primary screen (AHR activators in singlicate)), 2845 (Confirmation screen (AHR activators in triplicate)), 434939 (Counterscreen (PXR activators in triplicate)), 2804 (Summary (AHR activators))]; assay type: ADME
NADPH oxidase 1 [11] = target: T2, NADPH oxidase 1; assay: Late-stage luminescence-based cell-based dose response assay to identify inhibitors of NADPH oxidase 1 (NOX1): Synthesized analogs 2.; assay type: functional
[12] = growth inhibition of yeast DHODH-expressing 3D7 parasites – SYBR Green, dry powder samples, dose response (AID 1159570); assay type: functional, cell-based;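 further: parasite growth measured after 72 hours of compound exposure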
[13] = toxicity to human HepG2 hepatoma cells – cell-based, plate reader, dry powder samples, cytotoxicity control, dose response (AID 1159569); assay type: functional;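 further: inhibitor potency with signal falling toward the positive control level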
[14] = Dd2 parasite growth inhibition in erythrocytes – SYBR Green, dry powder samples, set 9, dose response (AID 1159568); assay type: functional, cell-based
[15] = P. falciparum Dd2 growth inhibitors, dose response, SYBR Green, cherry-picked samples (AID 1159567); assay type: functional, cell-based
[16] = Dd2 malaria parasite growth inhibition potency – SYBR Green, dry powder samples, dose response (AID 1159566); assay type: functional, cell-based;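 further: potency for growth inhibition with lower SYBR green DNA signal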
[17] = Plasmodium falciparum Dd2 Sybr green parasite growth Measured in Cell-Based and Microorganism Combination System Using Plate Reader - 2153-01_Inhibitor_Dose_DryPowder_Activity_Set3.; assay type: functional
[18] = growth inhibition of PfATP4-mutant resistant parasites – NITD609-resistant line, SYBR Green, dry powder, dose response (AID 1159571); assay type: functional, cell-based;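 further: parasites synchronized at ring stage by sorbitol before testing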
[19] = NIH-3T3 fibroblast cytotoxicity, dose response, cytotoxicity control, cell-based, fluorescence, Alamar Blue, secondary assay (AID 2327); assay type: functional;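 further: NIH-3T3 mouse fibroblasts cultured with fluconazole at 8 µg/mL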
[20] = fluconazole-exposed Candida albicans growth modulators – fluorescence, retest, confirmation (AID 2467); assay type: functional, cell-based
[21] = target: T3, Mannose-6-phosphate isomerase (Homo sapiens, UniProt P34949); assay: MPI enzyme activity inhibition – biochemical, fluorescence intensity, coupled assay, primary screen (AID 1209)
T3 sequence (P34949 whole entry): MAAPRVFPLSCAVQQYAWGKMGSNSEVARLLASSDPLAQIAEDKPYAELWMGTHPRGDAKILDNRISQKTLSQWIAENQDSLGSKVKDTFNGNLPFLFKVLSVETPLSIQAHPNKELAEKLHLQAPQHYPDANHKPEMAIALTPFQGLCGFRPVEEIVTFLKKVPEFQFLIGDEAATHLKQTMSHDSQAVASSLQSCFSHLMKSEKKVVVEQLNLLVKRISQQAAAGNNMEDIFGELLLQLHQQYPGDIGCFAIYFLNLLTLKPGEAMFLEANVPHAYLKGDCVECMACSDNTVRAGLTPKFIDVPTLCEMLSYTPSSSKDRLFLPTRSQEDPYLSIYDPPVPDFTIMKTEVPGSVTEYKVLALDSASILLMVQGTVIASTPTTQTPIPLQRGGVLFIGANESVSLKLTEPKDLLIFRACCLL

[22] = target: T4, Induced myeloid leukemia cell differentiation protein Mcl-1 (Homo sapiens, UniProt Q07820); assay type: functional
[23] = target: T3, Mannose-6-phosphate isomerase; assay: MPI inhibition at elevated mannose 6-phosphate – biochemical, fluorescence intensity, high mannose 6-phosphate, primary screen (AID 1220)
[24] = target: Eukaryotic translation initiation factor 4E (Mus musculus, UniProt P63073); assay: blockers of eIF4G binding by eIF4E – biochemical, TR-FRET, dose response (AID 855); assay type: functional;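 further: potency for disrupting eIF4E binding to eIF4GI seen as loss of FRET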
Nonstructural protein 1 = Nonstructural protein 1 (Influenza A virus, UniProt Q194T2); assay type: functional, Influenza A virus (A/California/07/2009(H1N1))
Genome polyprotein = Genome polyprotein (dengue virus type 2, UniProt P29990); assay: flavivirus cap methylation enzyme inhibition – biochemical, confirmation dose response, primary screen (AID 588689); assay type: functional
[25] = target: Glutathione-S-transferase (Schistosoma japonicum, UniProt Q26513); assay: GST-antibody interaction or FRET quenching – biochemical, TR-FRET, artefact control for Vif-APOBEC3G degradation inhibitor project, dose response (AID 1117362); assay type: functional
[26] = target: Neuropeptides B/W receptor type 1 (Homo sapiens, UniProt P48145); assay: Fluorescence-based dose response cell-based high throughput screening assay to identify antagonists of the G-protein coupled receptor 7 (GPR7). [Related pubchem assays: 1952 (Screening assay (GPR7 antagonists).), 1880 (Summary AID.)]; assay type: functional
[27] = target: Melanin-concentrating hormone receptor 1 (Homo sapiens, UniProt Q99705); assay: Fluorescence-based counterscreen for antagonists of the G-protein coupled receptor 7 (GPR7): cell-based high throughput dose response assay to identify antagonists of the melanin-concentrating hormone receptor 1 (MCHR1).; assay type: functional
[28] = luciferase reporter signal suppression in cells – H4 neuroglioma cells, luminescence, dose response (AID 1990); assay type: functional, cell-based
[29] = luciferase reporter signal reduction – luminescence, H4-C neuroglioblastoma cells, dose response (AID 2458); assay type: functional, cell-based;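 further: H4 neuroglioblastoma cells stably carrying a luciferase reporter gene fusion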
cells = assay type: functional, cell-based
[30] = Luminescence Cell-Based Dose Response HTS to Identify Inhibitors of 5'UTR Stem-Loop Driven Prion Protein mRNA Translation in H4 Neuroglioblastoma Cells. [Related pubchem assays: 1827 (Project Summary), 1813 (Primary HTS)]; assay type: functional
[31] = alpha-synuclein stem-loop luciferase translation blockers – H4 neuroglioma cells, luminescence, confirmation (AID 1988); assay type: functional, cell-based
[32] = Luminescence-based dose response cell-based high throughput screening assay for cytotoxic compounds using the IEC-6 intestinal epithelial cell line. [Related pubchem assays: 1858 (Summary AID.), 1825 (Counterscreen.), 1907 (Confirmation screen.)]; assay type: functional
[33] = alpha-synuclein stem-loop translation blockers – luminescence, H4 neuroglioblastoma cells, dose confirmation, confirmation (AID 2454); assay type: functional, cell-based;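 further: H4 neuroglioblastoma cells carrying an alpha-synuclein 5'UTR luciferase reporter; potency for inhibition of the luciferase signal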
Vero = assay: cells; assay type: functional, cell-based; conditions: Chlorocebus sabaeus
[34] = target: T4, Induced myeloid leukemia cell differentiation protein Mcl-1; assay: blockers of MCL1 binding to BIM peptide – biochemical, fluorescence polarization, BIM-BH3 peptide, 1536-well, dose response (AID 2217)
Bcl-2-like protein 1 = Bcl-2-like protein 1 (Homo sapiens, UniProt Q07817); assay: blockers of BCLXL peptide binding – biochemical, fluorescence polarization, 1536-well, selectivity assay for MCL1 inhibitor project, dose response (AID 2218)
[35] = Dd2 parasite growth inhibition in erythrocytes – SYBR Green, dry powder samples, set 4, dose response (AID 1159572); assay type: functional, cell-based

T4 sequence (Q07820 whole entry): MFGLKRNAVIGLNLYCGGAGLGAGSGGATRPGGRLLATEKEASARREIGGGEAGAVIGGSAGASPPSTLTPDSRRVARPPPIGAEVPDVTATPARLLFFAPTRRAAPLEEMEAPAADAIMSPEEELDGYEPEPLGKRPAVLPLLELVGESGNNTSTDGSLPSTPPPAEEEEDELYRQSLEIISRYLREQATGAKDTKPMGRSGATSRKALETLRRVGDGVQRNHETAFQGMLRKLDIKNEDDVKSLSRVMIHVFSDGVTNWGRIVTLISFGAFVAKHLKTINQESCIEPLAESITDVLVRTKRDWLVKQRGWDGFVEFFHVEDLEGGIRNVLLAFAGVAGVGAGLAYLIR
T2 sequence (Q9Y5S8 whole entry): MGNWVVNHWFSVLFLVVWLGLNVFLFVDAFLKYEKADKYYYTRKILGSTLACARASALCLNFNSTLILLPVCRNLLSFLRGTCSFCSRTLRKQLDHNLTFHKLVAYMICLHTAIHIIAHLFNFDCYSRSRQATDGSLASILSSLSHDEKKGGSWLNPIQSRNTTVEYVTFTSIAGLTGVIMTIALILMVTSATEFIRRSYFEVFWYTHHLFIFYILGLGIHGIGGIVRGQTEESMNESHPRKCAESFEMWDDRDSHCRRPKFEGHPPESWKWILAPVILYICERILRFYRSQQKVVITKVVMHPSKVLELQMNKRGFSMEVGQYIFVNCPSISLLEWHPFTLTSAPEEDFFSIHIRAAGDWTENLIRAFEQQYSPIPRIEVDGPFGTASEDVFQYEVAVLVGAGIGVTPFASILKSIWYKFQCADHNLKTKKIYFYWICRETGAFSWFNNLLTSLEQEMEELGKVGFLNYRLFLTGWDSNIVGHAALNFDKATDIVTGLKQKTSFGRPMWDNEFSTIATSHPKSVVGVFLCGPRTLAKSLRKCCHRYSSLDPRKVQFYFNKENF
Glutathione-S-transferase, sequence (Q26513 whole entry): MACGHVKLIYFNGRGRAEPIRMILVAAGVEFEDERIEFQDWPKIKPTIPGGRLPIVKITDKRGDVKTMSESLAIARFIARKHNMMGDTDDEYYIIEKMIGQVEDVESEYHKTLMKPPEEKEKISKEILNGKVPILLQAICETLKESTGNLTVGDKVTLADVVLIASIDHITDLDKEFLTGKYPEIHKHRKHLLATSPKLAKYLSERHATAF
Eukaryotic translation initiation factor 4E, sequence (P63073 whole entry): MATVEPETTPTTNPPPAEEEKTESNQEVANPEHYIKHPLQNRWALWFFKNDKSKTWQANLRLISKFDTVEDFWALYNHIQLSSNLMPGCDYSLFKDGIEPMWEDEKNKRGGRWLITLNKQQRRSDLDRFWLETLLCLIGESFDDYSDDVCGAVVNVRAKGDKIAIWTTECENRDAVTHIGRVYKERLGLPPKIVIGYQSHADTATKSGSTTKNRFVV
Nonstructural protein 1, sequence (Q194T2 whole entry): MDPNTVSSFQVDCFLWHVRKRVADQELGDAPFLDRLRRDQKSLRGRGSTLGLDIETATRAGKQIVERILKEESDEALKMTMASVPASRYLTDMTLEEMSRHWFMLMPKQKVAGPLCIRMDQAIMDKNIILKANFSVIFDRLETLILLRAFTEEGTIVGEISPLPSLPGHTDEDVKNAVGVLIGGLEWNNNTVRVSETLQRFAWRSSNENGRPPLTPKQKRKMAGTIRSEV
Aryl hydrocarbon receptor, sequence (P35869 whole entry): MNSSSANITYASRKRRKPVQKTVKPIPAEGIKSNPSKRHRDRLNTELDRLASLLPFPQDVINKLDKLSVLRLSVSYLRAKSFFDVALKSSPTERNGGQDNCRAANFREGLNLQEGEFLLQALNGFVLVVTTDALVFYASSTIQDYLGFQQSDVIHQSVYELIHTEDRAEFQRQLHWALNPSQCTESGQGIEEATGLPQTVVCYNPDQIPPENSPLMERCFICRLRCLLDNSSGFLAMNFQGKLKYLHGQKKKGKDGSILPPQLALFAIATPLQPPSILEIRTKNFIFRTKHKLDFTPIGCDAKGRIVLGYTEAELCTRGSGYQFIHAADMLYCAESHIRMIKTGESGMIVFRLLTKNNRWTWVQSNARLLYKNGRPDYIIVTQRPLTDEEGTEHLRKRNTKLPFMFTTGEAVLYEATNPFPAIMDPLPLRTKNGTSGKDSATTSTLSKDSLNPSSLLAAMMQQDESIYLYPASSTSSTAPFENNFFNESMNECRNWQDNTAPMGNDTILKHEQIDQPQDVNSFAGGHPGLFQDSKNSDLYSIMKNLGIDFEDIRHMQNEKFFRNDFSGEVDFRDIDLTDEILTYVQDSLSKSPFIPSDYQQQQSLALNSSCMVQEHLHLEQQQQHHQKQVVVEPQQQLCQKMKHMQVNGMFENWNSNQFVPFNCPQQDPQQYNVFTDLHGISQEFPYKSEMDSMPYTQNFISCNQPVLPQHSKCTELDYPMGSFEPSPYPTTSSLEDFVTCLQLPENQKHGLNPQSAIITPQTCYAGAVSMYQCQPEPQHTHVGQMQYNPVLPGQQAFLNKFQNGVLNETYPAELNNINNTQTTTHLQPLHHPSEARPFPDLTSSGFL
Neuropeptides B/W receptor type 1, sequence (P48145 whole entry): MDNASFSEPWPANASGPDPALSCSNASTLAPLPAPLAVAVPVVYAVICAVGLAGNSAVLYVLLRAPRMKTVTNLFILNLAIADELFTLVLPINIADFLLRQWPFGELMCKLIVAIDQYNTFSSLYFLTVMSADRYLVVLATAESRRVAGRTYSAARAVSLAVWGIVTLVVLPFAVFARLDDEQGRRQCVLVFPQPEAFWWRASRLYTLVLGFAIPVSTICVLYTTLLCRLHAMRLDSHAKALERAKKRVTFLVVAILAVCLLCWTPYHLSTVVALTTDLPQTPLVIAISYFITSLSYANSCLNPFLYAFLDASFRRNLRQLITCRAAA
Melanin-concentrating hormone receptor 1, sequence (Q99705 whole entry): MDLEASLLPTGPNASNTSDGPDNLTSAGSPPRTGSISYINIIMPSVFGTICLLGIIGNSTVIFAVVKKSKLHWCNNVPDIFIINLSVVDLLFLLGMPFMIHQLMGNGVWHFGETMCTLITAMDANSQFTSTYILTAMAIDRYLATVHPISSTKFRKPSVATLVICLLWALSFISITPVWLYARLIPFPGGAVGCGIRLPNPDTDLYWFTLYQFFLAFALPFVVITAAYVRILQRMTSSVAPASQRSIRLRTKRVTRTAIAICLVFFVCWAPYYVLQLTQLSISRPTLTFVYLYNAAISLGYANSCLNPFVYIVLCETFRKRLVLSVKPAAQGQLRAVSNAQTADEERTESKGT
Bcl-2-like protein 1, sequence (Q07817 whole entry): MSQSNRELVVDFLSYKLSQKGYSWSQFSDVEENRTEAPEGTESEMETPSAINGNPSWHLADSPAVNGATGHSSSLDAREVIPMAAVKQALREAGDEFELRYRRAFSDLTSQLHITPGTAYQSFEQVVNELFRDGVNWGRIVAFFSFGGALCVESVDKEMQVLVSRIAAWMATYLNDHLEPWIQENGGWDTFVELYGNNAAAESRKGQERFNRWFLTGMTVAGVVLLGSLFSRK
Mitogen-activated protein kinase 10, sequence (P53779 whole entry): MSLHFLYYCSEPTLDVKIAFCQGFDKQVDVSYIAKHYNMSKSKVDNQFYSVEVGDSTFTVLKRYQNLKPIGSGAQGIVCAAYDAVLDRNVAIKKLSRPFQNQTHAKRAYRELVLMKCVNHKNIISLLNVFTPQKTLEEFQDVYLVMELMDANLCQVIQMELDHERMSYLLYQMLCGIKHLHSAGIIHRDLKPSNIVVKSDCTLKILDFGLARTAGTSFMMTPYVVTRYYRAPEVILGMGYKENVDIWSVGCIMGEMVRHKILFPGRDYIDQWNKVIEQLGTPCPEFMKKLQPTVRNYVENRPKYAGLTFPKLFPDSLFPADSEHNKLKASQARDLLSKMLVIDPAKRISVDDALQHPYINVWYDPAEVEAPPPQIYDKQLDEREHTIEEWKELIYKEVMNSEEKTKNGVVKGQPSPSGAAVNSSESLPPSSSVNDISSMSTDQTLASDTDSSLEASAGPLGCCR
Genome polyprotein, sequence (P29990 2492-3391 limits assumed): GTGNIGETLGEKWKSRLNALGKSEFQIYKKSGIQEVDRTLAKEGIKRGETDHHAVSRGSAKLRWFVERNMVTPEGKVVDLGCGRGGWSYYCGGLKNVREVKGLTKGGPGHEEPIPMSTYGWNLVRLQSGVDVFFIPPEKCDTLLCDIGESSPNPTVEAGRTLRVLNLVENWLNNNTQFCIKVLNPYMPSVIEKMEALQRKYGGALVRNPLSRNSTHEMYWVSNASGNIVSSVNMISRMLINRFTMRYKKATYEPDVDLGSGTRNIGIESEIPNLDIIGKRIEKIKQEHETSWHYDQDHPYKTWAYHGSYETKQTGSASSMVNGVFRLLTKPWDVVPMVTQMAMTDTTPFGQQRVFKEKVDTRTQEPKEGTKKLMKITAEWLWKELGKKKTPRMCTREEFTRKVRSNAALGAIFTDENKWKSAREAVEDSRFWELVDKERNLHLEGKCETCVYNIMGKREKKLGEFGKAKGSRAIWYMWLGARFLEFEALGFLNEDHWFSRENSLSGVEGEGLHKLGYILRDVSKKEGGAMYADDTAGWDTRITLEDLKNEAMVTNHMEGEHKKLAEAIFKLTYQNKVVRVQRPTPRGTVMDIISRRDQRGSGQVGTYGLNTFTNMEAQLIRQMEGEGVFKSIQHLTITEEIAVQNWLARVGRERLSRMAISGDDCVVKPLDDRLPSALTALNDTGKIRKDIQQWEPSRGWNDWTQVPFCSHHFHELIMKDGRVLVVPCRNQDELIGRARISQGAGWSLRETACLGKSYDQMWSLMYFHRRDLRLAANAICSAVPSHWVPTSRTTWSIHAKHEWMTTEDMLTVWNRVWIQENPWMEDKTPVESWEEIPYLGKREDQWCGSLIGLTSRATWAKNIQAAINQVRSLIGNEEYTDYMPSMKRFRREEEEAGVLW

Cc1c(-c2nc(-c3ccc(C(C)(C)C)cc3)no2)n(C)oc1=O
IC50 [1]: > 0.003 µM (active) | AC50 [2]: > 52 µM (inactive)

O=C(N/N=C/C(Br)=C/c1ccccc1)c1cc(-c2ccco2)[nH]n1
CC50 [3]: 33.1 µM (active) | EC50 (HEK293 [4]): > 59.6 µM (inactive) | EC50 (HEK293 [5]): > 59.6 µM (inactive)

O=C(Nc1ccc(OCc2ccccc2)cc1)Nc1ccc([N+](=O)[O-])cc1
IC50 (NADPH oxidase 1 [6]): > 17 µM (not active)

O=C(c1ccco1)c1cn(Cc2ccccc2)c2ccccc12
CC50 [7]: > 40 µM (active)

Cc1c(-c2nc(N)nc(Nc3ccccc3)n2)oc2ccccc12
IC50 [8]: > 93.1 µM (not active) | IC50 [9]: 7.66 µM (active)

Nc1cccc(Nc2ncnc3ccccc23)c1
EC50 [10]: 3.58 µM (active)

CN1c2ccccc2Sc2cc(NC(=O)c3ccc(N=[N+]=[N-])cc3)ccc21
IC50 (NADPH oxidase 1 [11]): 17.7 µM (active)

CCCC(=O)Nc1ccc2c(c1)OC[C@@H](C)N(Cc1cc(F)ccc1F)C[C@@H](C)[C@H](OC)CN(C)C2=O
AC50 [12]: 7.15 µM (active) | AC50 [13]: > 100 µM (inactive) | AC50 [14]: 0.978 µM (active) | AC50 [15]: 0.817 µM (active) | AC50 [16]: 0.322 µM (active) | AC50 [17]: 2.07 µM (active) | AC50 [18]: 2.81 µM (active)

CCn1c(C)nc2cc(C(=O)N/N=C/c3ccc(O)c(O)c3O)ccc21
EC50 [19]: 104 µM (active) | EC50 [20]: 1.6 µM (active) | IC50 [21]: 7.02 µM (active) | IC50 [22]: > 54 µM (active) | IC50 [23]: 8.47 µM (active) | IC50 [24]: 27.5 µM (active) | IC50 (Nonstructural protein 1): 16.6 µM (active) | IC50 (Genome polyprotein): 21.7 µM (active) | IC50 [25]: 45 µM (active)

O=C(NC1CCCC1)C(c1ccccc1)N(Cc1ccco1)C(=O)Cc1cccs1 (stereo unspecified)
IC50 [26]: > 43.8 µM (not active) | IC50 [27]: 4.76 µM (active)

CN(C)c1ccc(C(=O)c2ccc(N(C)C)c3ccccc23)cc1
EC50 [28]: < 0.1 µM (active) | EC50 [29]: 0.103 µM (active) | EC50 (cells): 0.112 µM (active) | EC50 [30]: < 0.1 µM (active) | EC50 [31]: < 0.1 µM (active) | IC50 [32]: 0.146 µM (active) | EC50 [33]: 0.118 µM (active) | IC50 (Vero): > 25 µM (active)

O=c1c2c3c(sc2[nH]c(=S)n1Cc1ccco1)CCC3
IC50 [34]: 77.8 µM (not active) | IC50 (Bcl-2-like protein 1): > 109 µM (not active) | IC50 [22]: 2.1 µM (active)

COc1ccc2c3c([nH]c2c1)[C@H](CO)N(C(C)=O)CC31CCN(C(=O)c2ccc3c(c2)OCO3)CC1
AC50 [35]: 6.93 µM (active)
